Data set [1] has as its system croton oil-induced ear edema. Put plainly: Croton oil-induced ear edema test. The class given is in vivo, mouse.
For data set [2], the system named is mouse skin. The data set can be described thus: Glucocorticoid-induced skin atrophy in mice (morphometric analysis of dorsal skin). The class given is in vivo. As for the experimental part: Seven-week-old females in the telogen stage of the hair cycle were shaved and treated 3 days later. Glucocorticoid FA was applied topically (2 μg/animal) in 200 μl acetone to the back skin once or up to four times every third day as described (Chebotaev et al, 2007c). Control animals were treated with acetone only. Animals were injected i.p. with bromodeoxyuridine (BrdU, Sigma-Aldrich, 50 μg/g of animal weight) 1 h before skin was harvested. Epidermis and s.c. fat were isolated from the murine dorsal skin mechanically by scraping (Chebotaev et al, 2007c). […] Quantification of the epidermal width and number of basal keratinocytes (as the readouts for skin atrophy and hypoplasia of raft epidermis) was performed in dorsal skin and ORC sections stained with H&E. The number of dermal cells was determined on sections stained with Masson's trichrome in the upper (papillary) dermis that is distinguishable from the lower (reticular) dermis ([…] et al, 2013). At least 10 individual fields per slide with at least three samples in each experimental group were counted using Axioplan2 microscope software (Carl Zeiss). All measurements are presented as % to corresponding control.

The mark [3] stands for this setting: B6D2 mice, FA 2 μg/animal topically every 72 h, 2-week treatment.

Consider `CC1(C)O[C@@H]2C[C@H]3[C@@H]4C[C@H](F)C5=CC(=O)C=C[C@]5(C)[C@@]4(F)[C@@H](O)C[C@]3(C)[C@]2(C(=O)CO)O1` [FA, fluocinolone acetonide], for which, in data set [1] (croton oil 20 ul/ear, FA 1 ug/ear 1 h before CO, weighed 9 h after CO), the “ear edema / ear weight” value is recorded as “reduced edema decreasing the ear weight to control level”. Moreover, the “anti-inflammatory effect (ear morphology and ear punch weight)” value in data set [1] (wild-type and REDD1 KO mice, FA 2 μg 1 h before croton oil, 9 h after CO) is on record as “relieved this inflammatory response with equal potency”. For the same compound, the “depletion of the interfollicular basal keratinocytes” value in data set [2] (setting [3]) came out at 50%. The epidermal thinning in data set [2] (setting [3]) is 50%. Further, in data set [2] (B6D2 mice, chronic FA treatment), the “depletion of s.c. adipose tissue” value is “complete depletion”. The “reduction of epidermal thickness” value in data set [2] (B6×129 mice, FA 2 ug/animal every 72 h for 2 weeks, with or without rapamycin 500 ug/animal×5 hrs pretreatment) is given as 50%; in data set [2] (REDD1 KO mice, chronic FA 2 μg/animal every 72 h for 2 weeks), less than 20%; in data set [2] (wild-type B6×129 mice, chronic FA 2 μg/animal every 72 h for 2 weeks), 50%. In addition, the skin atrophy entry in data set [2] (F1 C57B1×129 mice, topical FA, 2 wk treatment) is on record as “severe skin atrophy”. Moreover, the “number of dermal fibroblasts” value in data set [2] (w.t. B6×129 mice treated with FA×2 wk, Masson's trichrome) was “strongly decreased”.

The record behind these values is US9980976B2, “Use of REDD1 inhibitors to dissociate therapeutic and adverse atrophogenic effects of glucocorticoid receptor agonists” (Northwestern University, priority 2015, dated 2018).
